In ChEMBL document CHEMBL3822372, “The development of peptide ligands that target helix 69 rRNA of bacterial ribosomes” (Bioorg Med Chem, 2016):
Activity calls are given as the source filed them. No cut-off for these calls is given here.

Assays:
[1] = Binding affinity to MS2-tagged 50s rRNA A-site in Escherichia coli BL21(DE3) by single molecule FRET assay
[2] = Binding affinity to uridylated H69 50s rRNA (unknown origin) by ESI-MS analysis; settings: for Kd: read-out: Kd(app)
[3] = Binding affinity to pseudouridylated H69 50s rRNA (unknown origin) by ESI-MS analysis; settings: for Kd: read-out: Kd(app)
[4] = Selectivity ratio for uridylated H69 50s rRNA (unknown origin) to pseudouridylated H69 50s rRNA (unknown origin)
[5] = Binding affinity to pseudouridylated H69 50s rRNA (unknown origin) at 1:1 peptide:RNA ratio by ESI-MS analysis
[6] = Binding affinity to pseudouridylated H69 50s rRNA (unknown origin) at 2:1 peptide:RNA ratio by ESI-MS analysis
[7] = Binding affinity to uridylated H69 50s rRNA (unknown origin) at 2:1 peptide:RNA ratio by ESI-MS analysis; settings: read-out: Kd(app)
[8] = Binding affinity to 5'-biotin labeled uridylated H69 50s rRNA (unknown origin) by ESI-MS analysis
[9] = Binding affinity to 5'-biotin labeled pseudouridylated H69 50s rRNA (unknown origin) at 2:1 peptide:RNA ratio by ESI-MS analysis; settings: read-out: Kd(app)
[10] = Binding affinity to pseudouridylated H69 50s rRNA (unknown origin) at 20 uM by ESI-MS analysis
[11] = Binding affinity to 5'-biotin labeled pseudouridylated H69 50s rRNA (unknown origin) by ESI-MS analysis; settings: read-out: Kd(app)

| Compound | Kd [3] [µM] | Kd [2] [µM] | further results |
| --- | --- | --- | --- |
| COc1ccc(C[C@H](N)C(=O)N[C@H]2[C@@H](O)[C@H](n3cnc4c(N(C)C)ncnc43)O[C@@H]2CO)cc1 [PUROMYCIN] |  |  | Kd [1]: 480 µM |
| H-AQVANHQ-NH2 |  | 9.9 | Kd(app) [3]: inactive |
| H-NAVANHQ-NH2 | 4.6 | 52.8 |  |
| H-NQAANHQ-NH2 |  |  | Selectivity ratio [4]: 23; Activity [5]: Active; Kd ([6]; read-out: Kd(app)): 5 µM; Kd [7]: 1000 nM |
| H-NQRANHQ-NH2 |  |  | Activity [5]: Active; Activity [6]: Active; Kd(app) [8]: inactive; Kd [9]: 6 µM |
| H-NQVAAHQ-NH2 |  | 14.3 | Kd(app) [3]: inactive |
| H-NQVAHAQ-NH2 |  |  | Activity [10]: inactive |
| H-NQVANAH-NH2 | > 20 |  |  |
| H-NQVANAQ-NH2 |  |  | Kd(app) [2]: inactive; Kd(app) [3]: inactive |
| H-NQVANHA-NH2 | 13.4 | 47.5 |  |
| H-NQVANHH-NH2 | > 20 |  |  |
| H-NQVANHQ-NH2 | 4.6 | 22.9 | Kd [11]: 3.1 µM |
| H-NQVANHR-NH2 |  | 20.5 | Kd [11]: 31.8 µM |
| H-NQVANRQ-NH2 | 4.5 | 14.4 |  |
| H-NQVARHQ-NH2 |  | 16.5 | Kd(app) [3]: inactive |
| H-NQVRNHQ-NH2 | > 20 | 21.7 |  |
| H-NRVANHQ-NH2 | > 40 | 35.5 |  |

More lines, main results first:

| Kd [3] [µM] | Compound | Kd [2] [µM] | further results |
| --- | --- | --- | --- |
| 16 | H-NQVAHHQ-NH2 |  |  |
| 2.1 | H-RQVANHQ-NH2 | 10 |  |
